Laboratory results: PubChem BioAssay AID2060618 (Molecular Pharmacology Branch, DTP, NCI, 2025)

Test system: 454973-116-R2-J3-PDC spheroids, percent test/control viability
Test: Anticancer human tumor 454973-116-R2-J3-PDC patient-derived pancreatic carcinoma cell line growth inhibition [CLK]
Settings: spheroids with HUVEC and MSC; for IC50: curve of first compound; for viability, T/C: stronger effect = lower value; active means viability on the fitted dose curve at most 10% of control; inactive means the rest
Description: A high-throughput screen of multi-cell type tumor spheroids was designed to identify active combinations of […] and targeted small molecules. Complex spheroids include a stromal component modeled by human endothelial cells (HUVEC) and fibroblasts modeled by human mesenchymal stem cells (MSCs). The concentration ranges selected for each drug and investigational agent were based upon clinically achievable concentrations if the clinical Cmax of the agent was known.
Compounds. The drugs and investigational agents: cirtuvivint (SM08502; NSC835563), CC-671 (NSC850746), vemurafenib (NSC761431), tapotoclax (NSC804041), sotorasib (NSC818433), adagrasib (NSC831453), MRTX-1133 (NSC836407), BAY2416964 (NSC825713), copanlisib (NSC816437), inavolisib (NSC800729), abemaciclib (NSC768073), osimertinib (NSC779217), entinostat (NSC756642), eltanexor (KPT-8602, NSC794443), venetoclax (NSC766270), ceralasertib (NSC777638), bortezomib (NSC756655), olaparib (NSC753686), talazoparib (NSC767125), alisertib (NSC759677), peposertib (NSC802822), gemcitabine (NSC613327), 5-fluorouracil (NSC19893), SN-38 (NSC673596), oxaliplatin (NSC266046), paclitaxel (NSC125973), and doxorubicin (NSC123127), were obtained from the National Cancer Institute (NCI) Developmental Therapeutics Program Chemical Repository. The FDA-approved anticancer drug set is available from the Developmental Therapeutics Program at https://dtp.cancer.gov/organization/dscb/obtaining/available plates.htm. […] The stock solutions were prepared in dimethyl sulfoxide (DMSO, Sigma-Aldrich, St. Louis, MO, cat. D2650), except for the platinum complexes which were prepared in saline (Quality Biological, Gaithersburg, MD, cat. 114-055-101), at 800-fold the tested concentration and stored at -70 degrees C prior to their use. All drugs and investigational agents were tested over a range starting from a high concentration at or near the clinical Cmax and decreasing in half-log increments. If the clinical Cmax for an agent had not been determined, the highest concentration tested was 10 microM.
Cell Culture. All cells were maintained in an incubator at 37 degrees C and 5% CO2 with 95% humidity. The PDC lines were cultured according to standard operating procedures established by the NCI PDMR. Briefly, all PDCs were thawed and cultured in Matrigel-coated flasks prepared with a working solution of 1X Ham's F-12 nutrient mix, without supplementation (Invitrogen, Waltham, MA, cat. 11765054), 100 U/mL penicillin-streptomycin (Invitrogen, cat. 15140122), and 2.5% Matrigel (Corning Inc., Corning, NY, cat. 354248) for the first three passages. The 947758-054-R-J2-PDC line was cultured in 6B/Colon 1A media, which includes advanced DMEM/F-12 (Thermo Fisher Scientific, cat. 12634028), 10 mM HEPES (Thermo Fisher Scientific, cat. 15630080), 1X GlutaMAX supplement (Thermo Fisher Scientific, cat. 35050061), 0.1 mg/mL primocin (InvivoGen, cat. ant-pm-2), 10% defined fetal bovine serum, heat inactivated (HyClone Laboratories Inc., cat. SH30070.03HI), 1.25 mM N-Acetyl-L-cysteine (Sigma-Aldrich, cat. A9165), 10 mM nicotinamide (Sigma-Aldrich, cat. N0636), 1X B-27 supplement (Thermo Fisher Scientific, cat. 17504044), 1X N-2 supplement (Thermo Fisher Scientific, cat. 17502048), and 10 microM Y-27632 dihydrochloride (Tocris Bioscience, cat. 1254). The 876862-298-R-J1-PDC was cultured in 6E media, which includes all 6B/Colon 1A media components plus 50% L-WRN conditioned media (ATCC, cat. CRL-3276), 50 ng/mL recombinant human EGF recombinant protein (hEGF; Thermo Fisher Scientific, cat. PHG0311), 10 ng/mL recombinant human fibroblast growth factor 10 (hGFG-10; PeproTech, cat. 100-26), 1 ng/mL recombinant human fibroblast growth factor 2 (hFGF-2; PeproTech, cat. 100-18B), and 1 µM prostaglandin E2 (PGE2; Tocris, cat. 2296). The 227483-062-R1-J1-PDC line was cultured in Panc media, containing all 6E components except hFGF-2, with the addition of 500 nM SB-431542 (Selleckchem, cat. S1067) and 10 nM gastrin (Tocris, cat. 3006). […]
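Further: spheroids exposed to compounds for 7 days before readout.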

C=C(F)C(=O)N1CCN(c2nc(OCC3CCCN3C)nc3c2CCN(c2cccc4cccc(Cl)c24)C3)CC1CC#N (configuration not stated) + CN1CCN(c2cc(C(=O)Nc3cc4cc(-c5cnn(C)c5)ccc4cn3)ccn2)CC1
5760 nM: IC50 (second compound 0.0316 µM)
4990 nM: IC50 (second compound 0.1 µM)
inactive: viability, T/C (second compound 0.0316 µM, first compound 0.0316 µM) 97.8% | viability, T/C (second compound 0.0316 µM, first compound 0.1 µM) 109% | viability, T/C (second compound 0.0316 µM, first compound 0.316 µM) 98.9% | viability, T/C (second compound 0.0316 µM, first compound 1 µM) 101% | viability, T/C (second compound 0.0316 µM, first compound 3.16 µM) 101% | viability, T/C (second compound 0.1 µM, first compound 0.0316 µM) 75.4% | viability, T/C (second compound 0.1 µM, first compound 0.1 µM) 82.9% | viability, T/C (second compound 0.1 µM, first compound 0.316 µM) 80.2% | viability, T/C (second compound 0.1 µM, first compound 1 µM) 81% | viability, T/C (second compound 0.1 µM, first compound 3.16 µM) 91.9%
< 31.6 nM: IC50 (second compound 0.316 µM) | IC50 (second compound 1 µM) | IC50 (second compound 3.16 µM) | IC50 (second compound 10 µM)
active: viability, T/C (second compound 0.0316 µM, first compound 10 µM) 3.09% | viability, T/C (second compound 0.1 µM, first compound 10 µM) 0.93% | viability, T/C (second compound 0.316 µM, first compound 0.0316 µM) 1.92% | viability, T/C (second compound 0.316 µM, first compound 0.1 µM) 2.64% | viability, T/C (second compound 0.316 µM, first compound 0.316 µM) 2.38% | viability, T/C (second compound 0.316 µM, first compound 1 µM) 2.24% | viability, T/C (second compound 0.316 µM, first compound 3.16 µM) 1.56% | viability, T/C (second compound 0.316 µM, first compound 10 µM) 0.09% | viability, T/C (second compound 1 µM, first compound 0.0316 µM) 0.15% | viability, T/C (second compound 1 µM, first compound 0.1 µM) 0.21% | viability, T/C (second compound 1 µM, first compound 0.316 µM) 2.03% | viability, T/C (second compound 1 µM, first compound 1 µM) 0.11% | viability, T/C (second compound 1 µM, first compound 3.16 µM) 0.1% | viability, T/C (second compound 1 µM, first compound 10 µM) 1.24% | viability, T/C (second compound 3.16 µM, first compound 0.0316 µM) 0.17% | viability, T/C (second compound 3.16 µM, first compound 0.1 µM) 2.27% | viability, T/C (second compound 3.16 µM, first compound 0.316 µM) 0.55% | viability, T/C (second compound 3.16 µM, first compound 1 µM) 0.15% | viability, T/C (second compound 3.16 µM, first compound 3.16 µM) 0.12% | viability, T/C (second compound 3.16 µM, first compound 10 µM) 1% | viability, T/C (second compound 10 µM, first compound 0.0316 µM) 1.46% | viability, T/C (second compound 10 µM, first compound 0.1 µM) 0.37% | viability, T/C (second compound 10 µM, first compound 0.316 µM) 0.27% | viability, T/C (second compound 10 µM, first compound 1 µM) 0.68% | viability, T/C (second compound 10 µM, first compound 3.16 µM) 0.23% | viability, T/C (second compound 10 µM, first compound 10 µM) 0.25%
